Results published in PubChem BioAssay AID328 (DTP/NCI, 2004).
Several values for one entry are separate records, joined by “and”; a condition that tells them apart may be missing. Identical values can stand only once. Inconclusive results and toxic doses are left out.

System: BDF1 mice, P388 leukemia ip, median survival T/C
Assay: NCI In Vivo Anticancer Drug Screen. Data for tumor model P388 Leukemia (intraperitoneal) in B6D2F1 (BDF1) mice
Conditions: endpoint: median survival time, higher = longer survival
In short: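 Steps: implant the tumour, treat one group with compound and another with vehicle, record survival, then divide treated by control.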

[1] = dose: 50.0 mg/kg/injection, schedule: Q01DX009 (ip), vehicle: Klucel (hydroxypropylcellulose) (HPC)
[2] = dose: 100.0 mg/kg/injection, schedule: Q01DX009 (ip), vehicle: Klucel (hydroxypropylcellulose) (HPC)
[3] = dose: 200.0 mg/kg/injection, schedule: Q01DX009 (ip), vehicle: Klucel (hydroxypropylcellulose) (HPC)
[4] = dose: 100.0 mg/kg/injection, schedule: Q04DX003 (ip), vehicle: Klucel (hydroxypropylcellulose) (HPC)
[5] = dose: 200.0 mg/kg/injection, schedule: Q04DX003 (ip), vehicle: Klucel (hydroxypropylcellulose) (HPC)
[6] = dose: 400.0 mg/kg/injection, schedule: Q01DX009 (ip), vehicle: Klucel (hydroxypropylcellulose) (HPC)
[7] = dose: 400.0 mg/kg/injection, schedule: Q04DX003 (ip), vehicle: Klucel (hydroxypropylcellulose) (HPC)
[8] = dose: 50.0 mg/kg/injection, schedule: Q01DX009 (ip), vehicle: saline with Tween-80
[9] = dose: 100.0 mg/kg/injection, schedule: Q01DX009 (ip), vehicle: saline with Tween-80
[10] = dose: 100.0 mg/kg/injection, schedule: Q04DX003 (ip), vehicle: saline with Tween-80
[11] = dose: 200.0 mg/kg/injection, schedule: Q04DX003 (ip), vehicle: saline with Tween-80
[12] = dose: 200.0 mg/kg/injection, schedule: Q01DX009 (ip), vehicle: saline with Tween-80
[13] = dose: 400.0 mg/kg/injection, schedule: Q04DX003 (ip), vehicle: saline with Tween-80

Cc1nc2ccccc2nc1CI was tested, and the T/C (dose: 2.9 mg/kg/injection, schedule: Q01DX009 (ip), vehicle: saline) was 110 % of control, the T/C (dose: 4.5 mg/kg/injection, schedule: Q01DX009 (ip), vehicle: saline) was 120 % of control and the T/C (dose: 10.0 mg/kg/injection, schedule: Q04DX003 (ip), vehicle: saline) was 115 % of control. For the same molecule, the T/C (dose: 17.0 mg/kg/injection, schedule: Q01DX009 (ip), vehicle: saline) was 100 % of control and 116 % of control, the T/C (dose: 20.0 mg/kg/injection, schedule: Q04DX003 (ip), vehicle: saline) was 110 % of control and the T/C (dose: 26.0 mg/kg/injection, schedule: Q01DX009 (ip), vehicle: saline) was 110 % of control. The T/C (dose: 30.0 mg/kg/injection, schedule: Q01DX001 (ip), vehicle: Klucel (hydroxypropylcellulose) (HPC)) was 88 % of control, the T/C (dose: 40.0 mg/kg/injection, schedule: Q01DX009 (ip), vehicle: saline) was 100 % of control and 116 % of control and the T/C (dose: 40.0 mg/kg/injection, schedule: Q04DX003 (ip), vehicle: saline) was 110 % of control.

S=C(Nc1ccccn1)Nc1ccccn1 was tested, and the T/C (dose: 25.0 mg/kg/injection, schedule: Q01DX009 (ip), vehicle: Klucel (hydroxypropylcellulose) (HPC)) was 99 % of control and 106 % of control, the T/C [1] was 99 % of control and 118 % of control and the T/C [2] was 89 % of control and 116 % of control. For the same molecule, the T/C [3] was 98 % of control.

In the case of CC1=C(Br)C(=O)C(c2c(C)c(Br)c(C)c([N+](=O)[O-])c2C)=C(Br)C1=O, the T/C (dose: 100.0 mg/kg/injection, schedule: Q01DX001 (ip), vehicle: Klucel (hydroxypropylcellulose) (HPC)) is reported as 100 % of control, the T/C (dose: 200.0 mg/kg/injection, schedule: Q01DX001 (ip), vehicle: Klucel (hydroxypropylcellulose) (HPC)) is reported as 110 % of control and the T/C (dose: 400.0 mg/kg/injection, schedule: Q01DX001 (ip), vehicle: Klucel (hydroxypropylcellulose) (HPC)) is reported as 100 % of control.

For O=[N+]([O-])C1(CO)COC(c2ccccc2)OC1 (stereo unspecified), the T/C (dose: 100.0 mg/kg/injection, schedule: Q01DX009 (ip), vehicle: water) was 109 % of control, the T/C (dose: 100.0 mg/kg/injection, schedule: Q04DX003 (ip), vehicle: water) was 95 % of control and the T/C (dose: 200.0 mg/kg/injection, schedule: Q01DX009 (ip), vehicle: water) was 86 % of control. The T/C (dose: 200.0 mg/kg/injection, schedule: Q04DX003 (ip), vehicle: water) was 100 % of control, the T/C (dose: 400.0 mg/kg/injection, schedule: Q01DX009 (ip), vehicle: water) was 90 % of control and the T/C (dose: 400.0 mg/kg/injection, schedule: Q04DX003 (ip), vehicle: water) was 104 % of control.

With CC(/C=C/c1ccccc1)=N\O the T/C (dose: 100.0 mg/kg/injection, schedule: Q04DX003 (ip), vehicle: saline sonified) was 90 % of control, the T/C (dose: 200.0 mg/kg/injection, schedule: Q04DX003 (ip), vehicle: saline sonified) was 90 % of control and the T/C (dose: 400.0 mg/kg/injection, schedule: Q04DX003 (ip), vehicle: saline sonified) was 90 % of control.

For CCCC(C1=CC(C)(C)c2ccccc2C1=O)c1ccc(Br)cc1 (stereo unspecified), the T/C (dose: 75.0 mg/kg/injection, schedule: Q01DX009 (ip), vehicle: Klucel (hydroxypropylcellulose) (HPC)) was 109 % of control, the T/C [2] was 100 % of control and the T/C [4] was 100 % of control. For the same molecule, the T/C (dose: 150.0 mg/kg/injection, schedule: Q01DX009 (ip), vehicle: Klucel (hydroxypropylcellulose) (HPC)) was 113 % of control, the T/C [3] was 95 % of control and 100 % of control and the T/C [5] was 100 % of control. For the same molecule, the T/C (dose: 300.0 mg/kg/injection, schedule: Q01DX009 (ip), vehicle: Klucel (hydroxypropylcellulose) (HPC)) was 100 % of control, the T/C [6] was 95 % of control and the T/C [7] was 100 % of control.

With BrCC(Br)CBr the T/C [8] was 104 % of control, the T/C (dose: 50.0 mg/kg/injection, schedule: Q04DX003 (ip), vehicle: saline with Tween-80) was 100 % of control and the T/C [9] was 122 % of control. For the same molecule, the T/C [10] was 100 % of control and the T/C [11] was 104 % of control.

In the case of O=C1CCCSc2ccccc21, the T/C [2] is reported as 120 % of control, the T/C [4] is reported as 100 % of control and the T/C [3] is reported as 115 % of control. For the same molecule, the T/C [5] was 100 % of control, the T/C [6] was 115 % of control and the T/C [7] was 100 % of control.

For CC([N+](=O)[O-])S(=O)(=O)c1ccc(Cl)cc1 (stereo unspecified), the T/C (dose: 50.0 mg/kg/injection, schedule: Q01DX001 (ip), vehicle: saline sonified) was 95 % of control, the T/C (dose: 100.0 mg/kg/injection, schedule: Q01DX001 (ip), vehicle: saline sonified) was 100 % of control and the T/C (dose: 200.0 mg/kg/injection, schedule: Q01DX001 (ip), vehicle: saline sonified) was 100 % of control.

With CCCCCCCCCCCCNC(=O)OCCN(CCOC(=O)NCCCCCCCCCCCC)C(=O)COc1ccc(Cl)cc1 the T/C (dose: 100.0 mg/kg/injection, schedule: Q04DX003 (ip), vehicle: other) was 100 % of control, the T/C (dose: 200.0 mg/kg/injection, schedule: Q04DX003 (ip), vehicle: other) was 100 % of control and the T/C (dose: 400.0 mg/kg/injection, schedule: Q04DX003 (ip), vehicle: other) was 100 % of control.

With OCCNCCNCCO the T/C (dose: 50.0 mg/kg/injection, schedule: Q01DX001 (ip), vehicle: saline) was 100 % of control, the T/C (dose: 100.0 mg/kg/injection, schedule: Q01DX001 (ip), vehicle: saline) was 104 % of control and the T/C (dose: 200.0 mg/kg/injection, schedule: Q01DX001 (ip), vehicle: saline) was 104 % of control.

C1=Cc2c3c(c4c(c2C1)C=CC4)C=CC3 was tested, and the T/C [8] was 91 % of control, the T/C [9] was 93 % of control and the T/C [12] was 95 % of control.

Cc1ccc(S(=O)(=O)N/N=C/C(O)CO)cc1 (stereo unspecified) was tested, and the T/C (dose: 3.13 mg/kg/injection, schedule: Q01DX009 (ip), vehicle: other) was 98 % of control, the T/C (dose: 6.25 mg/kg/injection, schedule: Q01DX009 (ip), vehicle: other) was 91 % of control and the T/C (dose: 12.5 mg/kg/injection, schedule: Q01DX009 (ip), vehicle: other) was 98 % of control and 101 % of control. The T/C (dose: 25.0 mg/kg/injection, schedule: Q01DX009 (ip), vehicle: other) was 98 % of control, the T/C (dose: 50.0 mg/kg/injection, schedule: Q01DX009 (ip), vehicle: other) was 96 % of control and the T/C (dose: 100.0 mg/kg/injection, schedule: Q01DX009 (ip), vehicle: other) was 99 % of control. For the same molecule, the T/C (dose: 200.0 mg/kg/injection, schedule: Q01DX009 (ip), vehicle: other) was 98 % of control and the T/C (dose: 400.0 mg/kg/injection, schedule: Q01DX009 (ip), vehicle: other) was 102 % of control.

With O=C(O)CC(NC(=O)OCc1ccccc1)C(=O)OCc1ccccc1 (stereo unspecified) the T/C [8] was 92 % of control, the T/C [9] was 111 % of control and the T/C [10] was 104 % of control. The T/C [12] was 111 % of control, the T/C [11] was 113 % of control and the T/C (dose: 400.0 mg/kg/injection, schedule: Q01DX009 (ip), vehicle: saline with Tween-80) was 100 % of control. The T/C [13] was 90 % of control.

COC(=O)c1ccc(N)c(C(Sc2ccccc2)c2ccccc2)c1 (stereo unspecified) was tested, and the T/C (dose: 50.0 mg/kg/injection, schedule: Q04DX002 (ip), vehicle: saline with Tween-80) was 98 % of control, the T/C (dose: 100.0 mg/kg/injection, schedule: Q04DX002 (ip), vehicle: saline with Tween-80) was 90 % of control and the T/C (dose: 200.0 mg/kg/injection, schedule: Q04DX002 (ip), vehicle: saline with Tween-80) was 99 % of control.

In the case of CCCN1CSC(=S)N(CCC)C1, the T/C [1] is reported as 100 % of control and the T/C [2] is reported as 170 % of control.

With NCCCCS(=O)(=O)Nc1ccc(Nc2c3ccccc3nc3cc([N+](=O)[O-])ccc23)cc1 the T/C (dose: 2.93 mg/kg/injection, schedule: Q04DX003 (ip), vehicle: saline) was 122 % of control, the T/C (dose: 33.0 mg/kg/injection, schedule: Q04DX003 (ip), vehicle: saline) was 154 % of control and the T/C (dose: 50.0 mg/kg/injection, schedule: Q04DX003 (ip), vehicle: saline) was 154 % of control. The T/C (dose: 75.0 mg/kg/injection, schedule: Q04DX003 (ip), vehicle: saline) was 172 % of control, the T/C (dose: 100.0 mg/kg/injection, schedule: Q04DX003 (ip), vehicle: saline) was 161 % of control and the T/C (dose: 200.0 mg/kg/injection, schedule: Q04DX003 (ip), vehicle: saline) was 161 % of control.

With CCCn1cnc2c(=S)nc[nH]c21 the T/C [9] was 108 % of control, the T/C [10] was 109 % of control and the T/C [11] was 118 % of control. The T/C [13] was 113 % of control.

With O=C(OCC#CC#CCOC(=O)c1ccccc1)c1ccccc1 the T/C [2] was 104 % of control, the T/C [4] was 100 % of control and the T/C [3] was 113 % of control. For the same molecule, the T/C [5] was 90 % of control, the T/C [6] was 104 % of control and the T/C [7] was 109 % of control.

With Cc1ccc(S(=O)(=O)OCC2C3CCC2C3)cc1 (stereo unspecified) the T/C [8] was 101 % of control, the T/C [9] was 107 % of control and the T/C [12] was 107 % of control.
